Counter-ions that a name gives are not always drawn.
What was measured:
[1] = tested on: HCT116; assay: viability inhibition vs untreated; higher = more cytotoxic; details: 72 h
[2] = tested on: HCT116; details: 72 h
Experimental: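 HCT116 control and MTA1-KO (CRISPR) HCT116 cells were seeded in 384-well plates (800 cells/well), treated 16 h later with 237 metabolism-related anticancer drugs at five doses (10 uM, 2 uM, 400 nM, 80 nM, 16 nM) for 72 h, two replicates; viability by CCK8. Values are % inhibition of viability relative to untreated cells, plus fitted IC50.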

SMILES | viability inhibition ([1]; genotype: MTA1-KO, 16 nM) [%] | viability inhibition ([1]; genotype: MTA1-KO, 80 nM) [%] | viability inhibition ([1]; genotype: MTA1-KO, 400 nM) [%] | viability inhibition ([1]; genotype: MTA1-KO, 2000 nM) [%] | viability inhibition ([1]; genotype: MTA1-KO, 10000 nM) [%] | viability inhibition ([1]; genotype: control, 16 nM) [%] | viability inhibition ([1]; genotype: control, 80 nM) [%] | viability inhibition ([1]; genotype: control, 400 nM) [%] | viability inhibition ([1]; genotype: control, 2000 nM) [%] | viability inhibition ([1]; genotype: control, 10000 nM) [%] | IC50 ([2]; genotype: MTA1-KO) [nM] | IC50 ([2]; genotype: control) [nM]
NS(=O)(=O)c1cc2c(cc1Cl)NC(CSCc1ccccc1)=NS2(=O)=O [Benzthiazide] | -4.89 | -8.13 | -6.12 | -11.1 | 36.1 | -2.68 | 0.658 | -1.2 | 7.85 | 44.8 | > 10000 | > 10000
c1ccc(-c2ccc(C(c3ccccc3)n3ccnc3)cc2)cc1 (stereo not drawn) [Bifonazole] | -14.7 | -10.9 | -14.8 | -16.2 | 16.8 | 7.85 | -6.02 | -12.2 | -12 | 18.9 | > 10000 | > 10000
C[C@H]1CCC/C=C/[C@@H]2C[C@H](O)C[C@H]2[C@H](O)/C=C/C(=O)O1 [Brefeldin A] | -15.6 | -20.1 | 104 | 105 | 105 | 4.87 | -4.17 | 112 | 109 | 110 | 255 | 166
CCN[C@H]1CN(CCCOC)S(=O)(=O)c2sc(S(N)(=O)=O)cc21 [Brinzolamide] | -13.1 | -25.7 | -24.4 | -29.9 | -25.2 | -12.4 | -11.9 | -8.93 | -15.3 | -13.6 | > 10000 | > 10000
C[C@]12CC[C@H](O)C[C@H]1CC[C@@H]1[C@@H]2CC[C@]2(C)[C@@H](c3ccc(=O)oc3)CC[C@]12O [Bufalin] | 15.4 | 39 | 58.6 | 83.8 | 91 | 65.7 | 67.6 | 69.3 | 77.6 | 80.9 | 143 | < 16
O=C(Cc1cccc(OC(F)(F)F)c1)Nc1ccc(CCCCc2nnc(NC(=O)Cc3ccccn3)s2)nn1 [CB839] | -4.17 | 2.28 | -14.1 | 1.81 | 3.54 | 0.501 | 13.6 | 24 | 20.5 | 20.2 | > 10000 | > 10000
CC(=O)c1ccc2c(c1)c1cc(C(C)=O)ccc1n2CCNC(C)C [CBL0137 hydrochloride] | -9.26 | -16.6 | 65.6 | 114 | 109 | 7.74 | -9.1 | 81.5 | 108 | 103 | 378 | 355
CCN1C(=O)CNc2ncc(-c3ccc(-c4ncn[nH]4)nc3C)nc21 [CC115] | 5.59 | -19.9 | -8.79 | 27.2 | 81.2 | -13.9 | -10.3 | -8.79 | 7.12 | 74.9 | 2130 | 4960
COC1CCC(N2C(=O)CNc3ncc(-c4ccc(C(C)(C)O)nc4)nc32)CC1 (stereo not drawn) [CC223] | -8.46 | -17.5 | -1.64 | 13.1 | 22.1 | 11.3 | -6.69 | -3.2 | -6.07 | 35.3 | > 10000 | > 10000
O=C(O)c1ccc(C=C2SC(=S)N(c3cccc(C(F)(F)F)c3)C2=O)cc1 [CFTRinh172] | -5.28 | -12.6 | -0.878 | -4.39 | 25.2 | -6.21 | -18.3 | -11.9 | 16 | 64.3 | > 10000 | 5310
N#CNC(=NCCCCCCOc1ccc(Cl)cc1)Nc1ccncc1 [CHS 828] | -0.922 | -1.84 | 18.8 | 41.1 | 49 | -11.1 | 18.5 | 30.7 | 59.8 | 79.4 | 535 | 1850
S=C(N/N=C1/CCCc2cccnc21)N1CCN(c2ccccn2)CC1 [COTI2] | 5.92 | 0.177 | 50.3 | 49.7 | 67.4 | 8.87 | -13.6 | -3.5 | 87.4 | 88.4 | 246 | 1080
O=C(O)CCCCC(CCSCc1ccccc1)SCc1ccccc1 (stereo not drawn) [CPI613] | -15.7 | -15.1 | -22.2 | -25.4 | -7.62 | 7.59 | -3.09 | -6.23 | -6.02 | 8.56 | > 10000 | > 10000
CCNC(=O)Nc1ccc(-c2nc(N3CCOC[C@@H]3C)c3c(n2)C(C)(C)S(=O)(=O)C3)cc1 [CZ415] | -6.27 | -12.8 | 23.6 | 61.9 | 75.6 | -5.97 | 12.9 | 20.8 | 61.7 | 60.1 | 501 | 552
CC(C)c1ccc(C(=O)N=C(N)N)cc1S(C)(=O)=O [Cariporide] | -28.1 | -33.2 | -32 | -35.2 | -20.9 | 19.4 | -4.81 | -9.25 | -4.56 | 22.7 | > 10000 | > 10000
CC1(C)CC[C@]2(C(=O)O[C@@H]3O[C@H](CO)[C@@H](O)[C@H](O)[C@H]3O)CC[C@]3(C)C(=CC[C@@H]4[C@@]5(C)CC[C@H](O[C@@H]6O[C@H](C(=O)O)[C@@H](O)[C@H](O)[C@H]6O)C(C)(C)[C@@H]5CC[C@]43C)[C@@H]2C1 [Chikusetsusaponin IVa] | -3.21 | -3.77 | -2.17 | -0.406 | 19.3 | -1.39 | -7.09 | -12.1 | -11.2 | 3.05 | > 10000 | > 10000
NS(=O)(=O)c1cc2c(cc1Cl)NC=NS2(=O)=O [Chlorothiazide] | -10.2 | -0.674 | -4.5 | -3.61 | -8.39 | 3.92 | 0.542 | 0.606 | -0.861 | 5.64 | > 10000 | > 10000
Cc1cc(C2CCCCC2)n(O)c(=O)c1 [Ciclopirox ethanolamine] | -18 | -22.5 | -14.4 | -5.78 | 54.5 | -10.2 | 5.38 | 5.2 | 46.4 | 91.6 | 7380 | 1880
Cc1cc(C2CCCCC2)n(O)c(=O)c1 [Ciclopirox] | -13.6 | 8.1 | -8.33 | 25.7 | 64.7 | 9.52 | 6.31 | 24 | 77 | 113 | 4960 | 1020
